Reference: the NIST ThermoML archive (doi:10.1016/j.jct.2017.01.001)
± gives the expanded uncertainty stated by the source.

Assay: wn = mass fraction of the nth substance listed
Conditions: 100 kPa, Liquid, Pycnometric method

SMILES | mass density (323.15 K, w1 = 0.5495) [kg/m3] | mass density (343.15 K, w1 = 0.5753) [kg/m3] | mass density (363.15 K, w1 = 0.5961) [kg/m3] | mass density (323.15 K, w1 = 0.323) [kg/m3] | mass density (343.15 K, w1 = 0.3141) [kg/m3] | mass density (363.15 K, w1 = 0.3071) [kg/m3]
O=C([O-])[O-].[K+].[K+] [potassium carbonate] + O | 1583.2 ± 20 | 1594.3 ± 20 | 1626.5 ± 20 |  |  | 
O=C([O-])[O-].[Na+].[Na+] [sodium carbonate] + O |  |  |  | 1323.5 ± 20 | 1310.2 ± 20 | 1268.7 ± 20
